Data as given in publication PMC9186362, “Design and biological evaluation of substituted 5,7-dihydro-6H-indolo[2,3-c]quinolin-6-one as novel selective Haspin inhibitors” (Journal of Enzyme Inhibition and Medicinal Chemistry, 2022).

Tests used:
Assay in all cases: SelectScreen ZLYTE
Type in all cases: biochemical
MAP2K6 (MKK6) = biological target: T1, MAP2K6 (MKK6) (Homo sapiens, UniProt P52564); details: ATP 100 µM, read-out: Percentage of inhibition
T1 construct: purchased Life Technologies (SelectScreen Whole Panel service)
T1 sequence (P52564 whole entry): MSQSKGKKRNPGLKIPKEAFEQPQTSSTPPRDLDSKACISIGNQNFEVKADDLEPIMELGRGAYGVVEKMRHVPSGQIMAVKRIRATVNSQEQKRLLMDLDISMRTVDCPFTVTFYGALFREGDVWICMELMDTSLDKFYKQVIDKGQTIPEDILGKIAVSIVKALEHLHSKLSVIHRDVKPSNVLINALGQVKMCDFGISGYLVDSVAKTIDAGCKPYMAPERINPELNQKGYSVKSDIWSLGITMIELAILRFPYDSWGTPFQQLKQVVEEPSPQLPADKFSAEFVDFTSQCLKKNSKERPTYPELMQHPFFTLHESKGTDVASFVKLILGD
Procedure, shortened: (§1)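 Percent inhibition values come from a one-concentration (1 μM) profiling run covering a wide set of kinases.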

KSR2 = KSR2 (Homo sapiens, UniProt Q6VAB6); details: ATP Km, read-out: Percentage of inhibition
Procedure, shortened: as §1

MARK1 (MARK) = biological target: T2, MARK1 (MARK) (Homo sapiens, UniProt Q9P0L2); details: ATP Km, read-out: Percentage of inhibition
T2 construct: purchased Life Technologies (SelectScreen)
T2 sequence (Q9P0L2 whole entry): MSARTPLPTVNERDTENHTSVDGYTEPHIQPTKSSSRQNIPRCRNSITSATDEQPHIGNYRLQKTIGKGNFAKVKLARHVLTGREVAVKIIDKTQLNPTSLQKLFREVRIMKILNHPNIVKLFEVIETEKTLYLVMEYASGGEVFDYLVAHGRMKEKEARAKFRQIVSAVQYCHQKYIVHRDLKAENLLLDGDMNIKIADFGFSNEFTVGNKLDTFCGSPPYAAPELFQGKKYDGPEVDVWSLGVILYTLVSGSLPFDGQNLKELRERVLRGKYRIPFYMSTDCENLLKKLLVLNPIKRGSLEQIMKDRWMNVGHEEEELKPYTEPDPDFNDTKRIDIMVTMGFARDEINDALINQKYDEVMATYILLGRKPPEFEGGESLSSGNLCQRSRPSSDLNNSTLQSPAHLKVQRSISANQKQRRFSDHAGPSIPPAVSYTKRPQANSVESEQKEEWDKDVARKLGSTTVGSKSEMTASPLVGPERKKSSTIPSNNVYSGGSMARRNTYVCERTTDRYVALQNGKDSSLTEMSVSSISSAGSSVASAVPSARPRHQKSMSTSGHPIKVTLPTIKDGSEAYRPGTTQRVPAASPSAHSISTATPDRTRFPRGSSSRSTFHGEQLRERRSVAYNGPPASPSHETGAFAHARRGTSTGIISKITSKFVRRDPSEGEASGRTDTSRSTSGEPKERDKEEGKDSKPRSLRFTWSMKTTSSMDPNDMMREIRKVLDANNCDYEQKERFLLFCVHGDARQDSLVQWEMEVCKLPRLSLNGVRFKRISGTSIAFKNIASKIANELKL
Procedure, shortened: as §1

JAK2 JH1 JH2 V617F = biological target: T3, JAK2 JH1 JH2 V617F (Homo sapiens, UniProt O60674, V617F); details: ATP Km, read-out: Percentage of inhibition
T3 construct: JAK2 JH1 JH2; purchased Life Technologies
T3 sequence (O60674 532-1132 V617F limits assumed): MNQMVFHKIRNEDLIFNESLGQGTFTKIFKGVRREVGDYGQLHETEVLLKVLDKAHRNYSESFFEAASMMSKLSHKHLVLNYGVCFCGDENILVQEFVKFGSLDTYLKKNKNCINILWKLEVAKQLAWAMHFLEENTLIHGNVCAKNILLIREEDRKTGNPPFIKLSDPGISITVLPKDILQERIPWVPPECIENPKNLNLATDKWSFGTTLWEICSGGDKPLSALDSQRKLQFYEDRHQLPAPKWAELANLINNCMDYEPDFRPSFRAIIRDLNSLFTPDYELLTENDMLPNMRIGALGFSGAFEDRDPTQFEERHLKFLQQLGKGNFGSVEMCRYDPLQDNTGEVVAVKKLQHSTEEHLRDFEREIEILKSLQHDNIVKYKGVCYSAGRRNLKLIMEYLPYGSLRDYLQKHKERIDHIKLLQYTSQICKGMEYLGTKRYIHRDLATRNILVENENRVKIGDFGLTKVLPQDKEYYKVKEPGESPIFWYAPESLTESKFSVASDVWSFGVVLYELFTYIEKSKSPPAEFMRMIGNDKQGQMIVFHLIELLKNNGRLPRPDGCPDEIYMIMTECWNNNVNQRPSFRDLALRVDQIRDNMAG
Procedure, shortened: as §1

FGFR1 = biological target: T4, FGFR1 (Homo sapiens, UniProt P11362); details: ATP Km, read-out: Percentage of inhibition
T4 construct: purchased Life Technologies
Procedure, shortened: as §1

NTRK2 (TRKB) = biological target: T5, NTRK2 (TRKB) (Homo sapiens, UniProt Q16620); details: ATP Km, read-out: Percentage of inhibition
T5 construct: purchased Life Technologies (SelectScreen service)
Procedure, shortened: as §1

AMPK (A2/B1/G3) = biological target: T6, AMPK (A2/B1/G3) (Homo sapiens, UniProt P54646); details: ATP Km, read-out: Percentage of inhibition
T6 construct: purchased Life Technologies (SelectScreen Whole Panel service)
Procedure, shortened: as §1

FLT3 = biological target: T7, FLT3 (Homo sapiens, UniProt P36888); details: ATP Km, read-out: Percentage of inhibition
T7 construct: purchased Life Technologies
Procedure, shortened: as §1

RET Y791F = biological target: T8, RET Y791F (Homo sapiens, UniProt P07949, Y791F); details: ATP Km, read-out: Percentage of inhibition
T8 construct: purchased Life Technologies
Procedure, shortened: as §1

PHKG1 = biological target: T9, PHKG1 (Homo sapiens, UniProt Q16816); details: ATP Km, read-out: Percentage of inhibition
T9 construct: purchased Life Technologies
T9 sequence (Q16816 whole entry): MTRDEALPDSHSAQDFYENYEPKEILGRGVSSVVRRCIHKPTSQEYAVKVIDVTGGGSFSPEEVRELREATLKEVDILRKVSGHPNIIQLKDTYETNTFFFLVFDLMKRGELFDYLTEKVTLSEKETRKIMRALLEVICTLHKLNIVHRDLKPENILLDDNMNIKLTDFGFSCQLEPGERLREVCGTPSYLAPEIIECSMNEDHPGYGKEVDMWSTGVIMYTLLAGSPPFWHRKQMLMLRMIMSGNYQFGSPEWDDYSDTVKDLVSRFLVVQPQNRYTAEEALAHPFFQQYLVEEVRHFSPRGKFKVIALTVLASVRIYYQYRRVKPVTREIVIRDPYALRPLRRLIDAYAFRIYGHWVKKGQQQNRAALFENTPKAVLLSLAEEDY
Procedure, shortened: as §1

BLK = biological target: T10, BLK (Homo sapiens, UniProt P51451); details: ATP Km, read-out: Percentage of inhibition
T10 construct: purchased Life Technologies (SelectScreen service)
Procedure, shortened: as §1

NTRK3 (TRKC) = biological target: T11, NTRK3 (TRKC) (Homo sapiens, UniProt Q16288); details: ATP Km, read-out: Percentage of inhibition
T11 construct: purchased Life Technologies
T11 sequence (Q16288 32-839): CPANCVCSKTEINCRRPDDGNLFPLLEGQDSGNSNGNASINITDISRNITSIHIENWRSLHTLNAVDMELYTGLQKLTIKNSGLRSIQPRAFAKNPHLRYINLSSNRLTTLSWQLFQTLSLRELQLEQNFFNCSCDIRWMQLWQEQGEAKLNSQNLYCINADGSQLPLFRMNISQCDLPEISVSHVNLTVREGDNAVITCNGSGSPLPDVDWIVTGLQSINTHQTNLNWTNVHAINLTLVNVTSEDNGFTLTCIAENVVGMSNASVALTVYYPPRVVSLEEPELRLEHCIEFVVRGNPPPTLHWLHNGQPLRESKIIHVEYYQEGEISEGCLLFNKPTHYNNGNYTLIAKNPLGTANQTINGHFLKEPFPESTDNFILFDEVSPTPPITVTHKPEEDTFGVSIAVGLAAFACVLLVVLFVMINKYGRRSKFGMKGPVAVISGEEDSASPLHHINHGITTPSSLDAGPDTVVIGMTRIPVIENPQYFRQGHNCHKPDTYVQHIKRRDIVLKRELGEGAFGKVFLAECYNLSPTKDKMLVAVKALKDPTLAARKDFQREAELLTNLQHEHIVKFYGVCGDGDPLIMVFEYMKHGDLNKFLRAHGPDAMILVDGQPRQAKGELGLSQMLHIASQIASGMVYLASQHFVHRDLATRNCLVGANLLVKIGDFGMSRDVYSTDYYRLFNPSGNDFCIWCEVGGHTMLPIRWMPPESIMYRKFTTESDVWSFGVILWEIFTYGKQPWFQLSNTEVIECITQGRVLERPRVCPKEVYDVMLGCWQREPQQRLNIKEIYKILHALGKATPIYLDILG
Procedure, shortened: as §1

MARK2 = biological target: T12, MARK2 (Homo sapiens, UniProt Q7KZI7); details: ATP Km, read-out: Percentage of inhibition
T12 construct: purchased Life Technologies (SelectScreen Whole Panel service)
T12 sequence (Q7KZI7 whole entry): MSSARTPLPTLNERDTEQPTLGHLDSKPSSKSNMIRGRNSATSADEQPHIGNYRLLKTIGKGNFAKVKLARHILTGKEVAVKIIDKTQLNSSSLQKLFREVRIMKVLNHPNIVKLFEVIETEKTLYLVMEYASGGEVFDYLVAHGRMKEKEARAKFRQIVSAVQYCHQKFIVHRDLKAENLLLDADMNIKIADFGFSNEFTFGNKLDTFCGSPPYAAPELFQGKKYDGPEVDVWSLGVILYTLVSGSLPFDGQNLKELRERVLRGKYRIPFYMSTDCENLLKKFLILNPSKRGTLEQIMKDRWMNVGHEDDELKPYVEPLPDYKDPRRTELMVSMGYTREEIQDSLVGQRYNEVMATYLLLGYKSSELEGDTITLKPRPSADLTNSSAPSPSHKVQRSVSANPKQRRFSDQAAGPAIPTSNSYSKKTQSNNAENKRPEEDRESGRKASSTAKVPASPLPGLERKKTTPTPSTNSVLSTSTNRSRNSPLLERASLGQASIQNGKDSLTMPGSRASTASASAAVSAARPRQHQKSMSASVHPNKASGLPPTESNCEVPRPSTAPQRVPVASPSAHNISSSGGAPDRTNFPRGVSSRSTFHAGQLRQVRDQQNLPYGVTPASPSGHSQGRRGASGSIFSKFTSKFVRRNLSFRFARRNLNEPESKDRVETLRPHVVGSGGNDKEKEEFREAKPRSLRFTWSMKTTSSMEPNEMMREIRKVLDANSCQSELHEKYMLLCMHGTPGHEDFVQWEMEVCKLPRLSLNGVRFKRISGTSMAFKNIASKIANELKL
Procedure, shortened: as §1

TEK (TIE2) Y897S = biological target: T13, TEK (TIE2) Y897S (Homo sapiens, UniProt Q02763, Y897S); details: ATP Km, read-out: Percentage of inhibition
T13 construct: purchased Life Technologies (SelectScreen Whole Panel)
Procedure, shortened: as §1

MAPK14 (p38 alpha) = biological target: T14, MAPK14 (p38 alpha) (Homo sapiens, UniProt Q16539); details: ATP 100 µM, read-out: Percentage of inhibition
T14 construct: purchased Life Technologies (SelectScreen Whole Panel service)
T14 sequence (Q16539 whole entry): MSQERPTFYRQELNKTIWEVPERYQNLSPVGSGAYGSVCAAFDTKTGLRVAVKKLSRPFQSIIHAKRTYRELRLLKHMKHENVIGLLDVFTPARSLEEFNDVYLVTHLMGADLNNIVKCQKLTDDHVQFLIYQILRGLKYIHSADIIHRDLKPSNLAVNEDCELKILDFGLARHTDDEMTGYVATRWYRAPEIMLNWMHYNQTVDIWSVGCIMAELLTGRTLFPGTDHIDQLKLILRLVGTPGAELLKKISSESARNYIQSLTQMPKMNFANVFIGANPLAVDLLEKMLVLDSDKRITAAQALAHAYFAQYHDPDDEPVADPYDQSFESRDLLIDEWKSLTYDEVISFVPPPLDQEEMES
Procedure, shortened: as §1

PDGFRA V561D = biological target: T15, PDGFRA V561D (Homo sapiens, UniProt P16234, V561D); details: ATP Km, read-out: Percentage of inhibition
T15 construct: purchased Life Technologies (SelectScreen service)
Procedure, shortened: as §1

MKNK1 (MNK1) = MKNK1 (MNK1) (Homo sapiens, UniProt Q9BUB5); details: ATP Km, read-out: Percentage of inhibition
Procedure, shortened: as §1

NEK2 = biological target: T16, NEK2 (Homo sapiens, UniProt P51955); details: ATP Km, read-out: Percentage of inhibition
T16 construct: purchased Life Technologies (SelectScreen Whole Panel)
T16 sequence (P51955 whole entry): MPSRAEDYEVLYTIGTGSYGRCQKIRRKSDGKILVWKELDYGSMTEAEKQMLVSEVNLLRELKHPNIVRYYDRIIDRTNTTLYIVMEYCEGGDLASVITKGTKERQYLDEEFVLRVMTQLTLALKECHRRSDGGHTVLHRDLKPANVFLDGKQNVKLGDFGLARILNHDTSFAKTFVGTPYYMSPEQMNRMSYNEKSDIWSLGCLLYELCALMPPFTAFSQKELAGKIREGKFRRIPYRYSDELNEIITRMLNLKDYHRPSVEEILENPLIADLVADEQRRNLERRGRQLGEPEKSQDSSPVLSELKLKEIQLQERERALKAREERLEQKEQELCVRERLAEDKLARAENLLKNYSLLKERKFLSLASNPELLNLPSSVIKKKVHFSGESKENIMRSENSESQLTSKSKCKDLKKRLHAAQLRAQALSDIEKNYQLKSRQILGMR
Procedure, shortened: as §1

KDR (VEGFR2) = KDR (VEGFR2) (Homo sapiens, UniProt P35968); details: ATP Km, read-out: Percentage of inhibition
Procedure, shortened: as §1

AKT1 (PKB alpha) = AKT1 (PKB alpha) (Homo sapiens, UniProt P31749); details: ATP Km, read-out: Percentage of inhibition
Procedure, shortened: as §1

MAPK3 (ERK1) = biological target: T17, MAPK3 (ERK1) (Homo sapiens, UniProt P27361); details: ATP Km, read-out: Percentage of inhibition
T17 construct: purchased Life Technologies
Procedure, shortened: as §1

ABL1 = biological target: T18, ABL1 (Homo sapiens, UniProt P00519); details: ATP Km, read-out: Percentage of inhibition
T18 construct: purchased Life Technologies (SelectScreen Whole Panel service)
Procedure, shortened: as §1

ABL1 Y253F = biological target: T19, ABL1 Y253F (Homo sapiens, UniProt P00519, Y253F); details: ATP Km, read-out: Percentage of inhibition
T19 construct: purchased Life Technologies (SelectScreen Whole Panel)
Procedure, shortened: as §1

AKT2 (PKB beta) = AKT2 (PKB beta) (Homo sapiens, UniProt P31751); details: ATP Km, read-out: Percentage of inhibition
Procedure, shortened: as §1

RET = biological target: T20, RET (Homo sapiens, UniProt P07949); details: ATP Km, read-out: Percentage of inhibition
T20 construct: purchased Life Technologies
Procedure, shortened: as §1

PEAK1 = biological target: T21, PEAK1 (Homo sapiens, UniProt Q9H792); details: ATP Km, read-out: Percentage of inhibition
T21 construct: purchased Life Technologies (SelectScreen Whole Panel)
Procedure, shortened: as §1

MUSK = biological target: T22, MUSK (Homo sapiens, UniProt O15146); details: ATP Km, read-out: Percentage of inhibition
T22 construct: purchased Life Technologies (SelectScreen Whole Panel service)
Procedure, shortened: as §1

ROCK1 = biological target: T23, ROCK1 (Homo sapiens, UniProt Q13464); details: ATP Km, read-out: Percentage of inhibition
T23 construct: purchased Life Technologies (SelectScreen Whole Panel service)
Procedure, shortened: as §1

MAP3K8 (COT) = biological target: T24, MAP3K8 (COT) (Homo sapiens, UniProt P41279); details: ATP 100 µM, read-out: Percentage of inhibition
T24 construct: purchased Life Technologies (SelectScreen service)
T24 sequence (P41279 whole entry): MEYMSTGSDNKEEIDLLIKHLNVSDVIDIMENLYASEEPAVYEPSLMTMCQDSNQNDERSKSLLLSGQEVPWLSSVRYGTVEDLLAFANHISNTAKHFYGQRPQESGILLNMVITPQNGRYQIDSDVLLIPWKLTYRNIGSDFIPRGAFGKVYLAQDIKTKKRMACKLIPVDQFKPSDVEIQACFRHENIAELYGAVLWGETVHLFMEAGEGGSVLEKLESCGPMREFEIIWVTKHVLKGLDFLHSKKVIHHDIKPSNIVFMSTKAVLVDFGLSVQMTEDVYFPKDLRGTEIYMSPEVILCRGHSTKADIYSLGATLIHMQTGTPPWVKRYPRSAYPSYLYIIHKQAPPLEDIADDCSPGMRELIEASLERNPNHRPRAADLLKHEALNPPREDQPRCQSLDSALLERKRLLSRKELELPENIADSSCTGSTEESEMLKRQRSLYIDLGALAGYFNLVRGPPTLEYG
Procedure, shortened: as §1

CHEK2 (CHK2) = biological target: T25, CHEK2 (CHK2) (Homo sapiens, UniProt O96017); details: ATP Km, read-out: Percentage of inhibition
T25 construct: purchased Life Technologies
Procedure, shortened: as §1

CAMK2D (CaMKII delta) = biological target: T26, CAMK2D (CaMKII delta) (Homo sapiens, UniProt Q13557); details: ATP Km, read-out: Percentage of inhibition
T26 construct: purchased Life Technologies (SelectScreen Whole Panel)
Procedure, shortened: as §1

CSNK1A1L = CSNK1A1L (Homo sapiens, UniProt Q8N752); details: ATP Km, read-out: Percentage of inhibition
Procedure, shortened: as §1

NTRK1 (TRKA) = NTRK1 (TRKA) (Homo sapiens, UniProt P04629); details: ATP Km, read-out: Percentage of inhibition
Procedure, shortened: as §1

MST4 = MST4 (Homo sapiens, UniProt Q9P289); details: ATP Km, read-out: Percentage of inhibition
Procedure, shortened: as §1

GSK3B (GSK3 beta) = biological target: T27, GSK3B (GSK3 beta) (Homo sapiens, UniProt P49841); details: ATP Km, read-out: Percentage of inhibition
T27 construct: purchased Life Technologies (SelectScreen service)
Procedure, shortened: as §1

PDGFRA D842V = biological target: T28, PDGFRA D842V (Homo sapiens, UniProt P16234, D842V); details: ATP Km, read-out: Percentage of inhibition
T28 construct: purchased Life Technologies (SelectScreen Whole Panel service)
Procedure, shortened: as §1

KIT = KIT (Homo sapiens, UniProt P10721); details: ATP Km, read-out: Percentage of inhibition
Procedure, shortened: as §1

CSNK1G1 (CK1 gamma 1) = CSNK1G1 (CK1 gamma 1) (Homo sapiens, UniProt Q9HCP0); details: ATP Km, read-out: Percentage of inhibition
Procedure, shortened: as §1

COc1ccc2[nH]c3c(=O)[nH]c4ccc(O)cc4c3c2c1 [Compound 55, 2-Hydroxy-10-methoxy-5,7-dihydro-6H-indolo[2,3-c]quinolin-6-one]
inhibition at 1 µM (MAP2K6 (MKK6)): 11%
inhibition at 1 µM (KSR2): 7%
inhibition at 1 µM (MARK1 (MARK)): 9%
inhibition at 1 µM (JAK2 JH1 JH2 V617F): 36%
inhibition at 1 µM (FGFR1): 38%
inhibition at 1 µM (NTRK2 (TRKB)): 80%
inhibition at 1 µM (AMPK (A2/B1/G3)): 42%
inhibition at 1 µM (FLT3): 93%
inhibition at 1 µM (RET Y791F): 96%
inhibition at 1 µM (PHKG1): 32%
inhibition at 1 µM (BLK): 86%
inhibition at 1 µM (NTRK3 (TRKC)): 93%
inhibition at 1 µM (MARK2): 12%
inhibition at 1 µM (TEK (TIE2) Y897S): 1%
inhibition at 1 µM (MAPK14 (p38 alpha)): 12%
inhibition at 1 µM (PDGFRA V561D): 79%
inhibition at 1 µM (MKNK1 (MNK1)): 7%
inhibition at 1 µM (NEK2): -11%
inhibition at 1 µM (KDR (VEGFR2)): 67%
inhibition at 1 µM (AKT1 (PKB alpha)): 6%
inhibition at 1 µM (MAPK3 (ERK1)): 27%
inhibition at 1 µM (ABL1): 43%
inhibition at 1 µM (ABL1 Y253F): 55%
inhibition at 1 µM (AKT2 (PKB beta)): 6%
inhibition at 1 µM (RET): 97%
inhibition at 1 µM (PEAK1): 50%
inhibition at 1 µM (MUSK): 18%
inhibition at 1 µM (ROCK1): 11%
inhibition at 1 µM (MAP3K8 (COT)): 91%
inhibition at 1 µM (CHEK2 (CHK2)): 33%
inhibition at 1 µM (CAMK2D (CaMKII delta)): 50%
inhibition at 1 µM (CSNK1A1L): 62%
inhibition at 1 µM (NTRK1 (TRKA)): 69%
inhibition at 1 µM (MST4): 61%
inhibition at 1 µM (GSK3B (GSK3 beta)): 81%
inhibition at 1 µM (PDGFRA D842V): 49%
inhibition at 1 µM (KIT): 6%
inhibition at 1 µM (CSNK1G1 (CK1 gamma 1)): 20%
